According to US20250049927A1, “MODIFIED OLIGONUCLEOTIDE-DRUG CONJUGATE AND USE THEREOF” (INTEROLIGO CORPORATION., priority 2021, published 2025):
Non-standard residues stand in square brackets, D forms with d. Residues, ends and D or L forms follow the SMILES beside them. *: point of attachment. Dolaproine = CO[C@@H]([C@@H]1CCCN1)[C@@H](C)C(=O)O; Dil = CC[C@H](C)[C@H](NC)[C@@H](CC(=O)O)OC; X1 = C[C@@H](N*)[C@@H](O)c1ccccc1; NMeV = CN[C@H](C(=O)O)C(C)C

Key:
Sprague-Dawley male rats = experiment: Death of rats after intravenous administration in the pharmacokinetic study; type: in vivo; conditions: MMAE 4 mg/kg intravenous
Protocol: Specifically, Sprague-Dawley male rats (8 weeks old, purchased from Youngbio) were acclimatized for 1 week in the animal room of the Catholic University Songsim Campus, and then pharmacokinetic experiments were performed. Rats were induced with isoflurane, an inhalation anesthetic, and PE50 (polyethylene tubing, Clay Adams, Becton Dickinson, NJ, USA) was inserted into the carotid (for blood collection) and jugular vein (for drug administration), followed by suturing with suture, and then end portions thereof were fixed to the back of the neck. During the surgery, anesthesia was maintained using ether, and about 0.5 mL of physiological saline solution containing heparin (20 units/mL) was injected to prevent blood from coagulating in the cannula. After completing the surgery, each rat was placed in a metabolic cage and allowed to fully recover from the anesthetic (for 4-5 hours). […] All of Example 9, MMAE and gemcitabine were dissolved in physiological saline at 2 mL per kg of body weight and administered into the jugular vein at doses of 40 mg/kg, 4 mg/kg and 2 mg/kg, respectively. […]

[1] = Pharmacokinetic evaluation in rats: plasma MMAE by LC-MS/MS; type: in vivo, Sprague-Dawley male rats; conditions: rat, MMAE 4 mg/kg alone intravenous
Protocol: After pretreating samples by protein precipitation, plasma concentration of MMAE was analyzed using liquid chromatography-tandem mass spectrometry (hereinafter referred to as LC-MS/MS) established in the Pharmacology/Pharmacokinetics Laboratory of the Catholic University College of Pharmacy. All analysis processes were conducted under light-shielding conditions.
[…] standard products were dissolved in acetonitrile to prepare a 1 mg/mL of storage solution and store it frozen.

[2] = tested on: BxPC-3 pancreatic cancer cell lines; experiment: Pancreatic cancer cell growth inhibition, WST assay; type: cell-based; conditions: BxPC-3, 72 hours treatment, absorbance 450 nm
Protocol: The in vitro anticancer efficacy of the modified oligonucleotide-drug conjugates was verified using pancreatic cancer cell lines. Pancreatic cancer cell lines (BxPC-3) were treated with the above-described examples and comparative examples at concentrations of 0, 0.01, 0.1, 1, 10, 100, 500 and 1000 μM, and the specific IC50 measurement method and measurement results are as follows.
All cell lines were cultured in a 5% CO2 incubator at 37° C. The BxPC-3 pancreatic cancer cell lines were cultured using a medium containing 10% FBS and 1% antibiotics put into ATCC modified RPMI-1640 (Thermo Scientific, USA). The medium was replaced once every 2-3 days, and passage-cultured at a time when about 70-90% of a culture dish was filled with the cells. First, the cells were washed with PBS, then 0.05% Trypsin-EDTA was added and cultured at 37° C. for 2 minutes, and then a new medium was added to inactivate trypsin. The cells were separated from trypsin and medium using a centrifuge, then another new medium was added and passaged at a ratio of 1:4, followed by culturing the same. All cells were periodically checked for contamination by mycoplasma using a kit (Intron, Korea), and in vitro efficacy evaluation experiments were conducted using only cells in which contamination was not detected.
Using WST reagent (Dongin LS, Korea), an inhibitory effect on pancreatic cancer cell growth by drug treatment was confirmed and IC50 was measured. An orange coloring substance called formazan is produced in WST by mitochondrial dehydrogenase within cells, which is effective only in living cells. The specific test method is as follows.
The cells cultured by the above-described method were dispensed by 2×10^4 into each well of a 96-well culture vessel and cultured for 24 hours. The medium of the cells attached to the culture vessel was replaced with an ATCC modified RPMI-1640 medium containing 5% FBS, and samples of the above-described modified oligonucleotide-drug conjugates (Examples 1-7 and 9-12, and Comparative Example 1-7, respectively) were treated at concentrations of 0, 0.01, 0.1, 1, 10, 100, 500 and 1000 μM. After 72 hours, 10 μl of WST reagent was added to each well and reacted for 2 hours. The produced formazan was measured with an absorbance at 450 nm using a Glomax plate meter (Promega, USA), and IC50 was evaluated according to the protocol in the device. IC50 evaluation results and graphs illustrating the same are shown in Table 2 below and FIGS. 19 to 27 (in Table 2, M=Gemcitabine, and N=5-FdU).

[3] = tested on: BxPC-3-Luc orthotopic pancreatic cancer; experiment: Orthotopic pancreatic cancer animal model, patch-type collagen drug delivery system inserted at tumor site; type: in vivo, BALB/c-nude male mice; conditions: 2.0 mg-loading collagen patch; for IVIS whole body image: change in luminescence / dead mice: inserted once; for IVIS whole body image: change in luminescence: 4 weeks; for dead mice: 28 days
Excerpt: To deliver the modified oligonucleotide-drug conjugates to an animal model, high-purity collagen (COLTRIX® Tendoregen, Ubiosis Co., Ltd.) dispersion (1.0%) and samples (e.g., modified oligonucleotide-drug conjugates, gemcitabine, etc.) to be tested were mixed, poured into a circular silicone mold having a diameter of 1 cm, and lyophilized to prepare a “patch-type collagen drug delivery system” in which the samples were loaded in the collagen. Amounts of the samples loaded per patch-type collagen drug delivery system are as shown in Table 3 below (in Table 3, SEQ ID NO: 16 is 5′-(Gem)(Gem)[TGG]4[TTG][TGG]5-3′, wherein Gem-Gemcitabine).
Specifically, each of sample (gemcitabine, IO101L (SEQ ID NO: 16) and modified oligonucleotide-drug conjugates (Example 5 and Example 9) to be tested was added to the high-purity collagen, and then uniformly mixed using a multi-mixer (SLRM-3, MYLAB) at 4° C. for 1 hour. Thereafter, a predetermined amount of the collagen-drug mixture was dispensed into a cylindrical silicone mold having a diameter of 1 cm and the collagen-drug mixture was primary frozen at −20° C. for 4 hours or more. After the first freezing was completed, the sample was separated from the cylindrical silicone mold and transferred to a sterile dish or plate, and then secondary frozen at −80° C. for 2 hours or more. After preliminary freezing so that the cold trap temperature of a lyophilizer was-80° C., the mixture was placed in the lyophilizer and lyophilized for more than 16 hours. The lyophilized mixture was compressed in the form of a patch using an acrylic plate, then was put into an aluminum pouch and sealed. The packaged patch-type collagen drug delivery system was refrigerated at 4° C.
The frozen cancer cell line (BxPC-3-Luc) (Asan Institute for Life Sciences) was thawed, and then cultured in an RPMI1640 medium (Biowest, Cat #. L0498-100) in which 10% fetal bovine serum (Biowest, Cat #. S1480) and 1% antibiotic (Gibco, Cat #. 15240062) were supplied at 37° C. under 5% CO2 condition. The thawed cells were cultured for one week to confirm that there were no problems with the shape, survival rate, and doubling time.
Cancer cells having a cell survival rate of 95% or more were prepared in order to transplant them into mice. The cells were harvested using trypsin, and prepared so as to transplant them into 5×10^5 cells/25 μl/mouse by being turbid in RPMI 1640 media. 6-week old BALB/c-nude male mice stabilized for 1 week (purchased from Jabio, Korea) were subjected to abdominal anesthesia, and the pancreas was taken out by dissecting the abdominal region of each anesthetized mouse and cells of 5×10^5 cells/25 μl were transplanted. After 2 weeks, tumor formation was confirmed through luciferase imaging. […] The patch-type collagen drug delivery system prepared in the above (1) was inserted (intra-abdominal cavity insertion using surgery) into the tumor site of each mouse in the respective groups. All animal experiments included in the present test were performed according to the Institutional Animal Care and Use Committee (IACUC) of the Asan Institute for Life Sciences [2022-14-058].
After inserting the patch-type collagen drug delivery system, changes in the tumor size were observed using IVIS imaging equipment (Xenogen IVIS spectrum system; Caliper Life Science, Inc., Hopkinton, MA) at an interval of 3 times a week for 4 weeks to check the body weight. […]

Compound	death of tested rats (Sprague-Dawley male rats)	AUC of MMAE up to 120 minutes higher than Example 9 (IO176) 40 mg/kg group [1]	plasma concentration of MMAE at 1 minute after administration [1] [ng/mL]	AUCt of MMAE ([1]; to final quantification time) [µg·min/mL]	AUC0-120 of MMAE ([1]; up to 120 minutes) [µg·min/mL]	IC50 [2] [nM]	effect of inhibiting tumor (IVIS images, tumor size and weight) [3]	IVIS whole body image: change in luminescence [3]	dead mice [3]
CC[C@H](C)[C@@H]([C@@H](CC(=O)N1CCC[C@H]1[C@H](OC)[C@@H](C)C(=O)N[C@H](C)[C@@H](O)c1ccccc1)OC)N(C)C(=O)[C@@H](NC(=O)[C@@H](NC)C(C)C)C(C)C [MMAE, Monomethyl auristatin E] (H-[NMeV]V[Dil][Dolaproine]-X1)	all tested 7 rats were died	about 9.70 times	29640 ± 7190	128 ± 16.1	71.7 ± 9.61				
Example 5 (GGTGGTGGTGGNNGNGGTGGTGGTGG; paclitaxel via acrylamide-C6-NH-succinic acid linker on U; modified_base 13 OTHER; deoxyuridine(dU); modified_base 12 OTHER; gemcitabine; modified_base 15 OTHER)						100	excellent effect of inhibiting tumor appeared	changes in the fluorescence were decreased	no dead mouse was observed
IO101L: SEQ ID NO: 16, 5′-(Gem)(Gem)[TGG]4[TTG][TGG]5-3′, Gem=Gemcitabine (DNA NNTGGTGGTGGTGGTTGTGGTGGTGGTGGTGG; two 5' gemcitabine nucleotides; modified_base 1 OTHER; gemcitabine; modified_base 2 OTHER)								luminescence was gradually increased over time	there were dead mice
